Data on 35 compounds can be found in patent US11124516B2, “Pyrrolo[1,2-A]pyrimidinyl carboxamide compounds and their use in the treatment of medical disorders” (Bial—Biotech Investments, Inc., priority 2016, dated 2021).

Converted amounts (≈) assume the structure as drawn. A value given as a limit tells only on which side of the number the result lay.

The target of series [1] is T1, glucocerebrosidase (Gcase) (Homo sapiens, UniProt P04062).
T1 sequence (P04062 40-536): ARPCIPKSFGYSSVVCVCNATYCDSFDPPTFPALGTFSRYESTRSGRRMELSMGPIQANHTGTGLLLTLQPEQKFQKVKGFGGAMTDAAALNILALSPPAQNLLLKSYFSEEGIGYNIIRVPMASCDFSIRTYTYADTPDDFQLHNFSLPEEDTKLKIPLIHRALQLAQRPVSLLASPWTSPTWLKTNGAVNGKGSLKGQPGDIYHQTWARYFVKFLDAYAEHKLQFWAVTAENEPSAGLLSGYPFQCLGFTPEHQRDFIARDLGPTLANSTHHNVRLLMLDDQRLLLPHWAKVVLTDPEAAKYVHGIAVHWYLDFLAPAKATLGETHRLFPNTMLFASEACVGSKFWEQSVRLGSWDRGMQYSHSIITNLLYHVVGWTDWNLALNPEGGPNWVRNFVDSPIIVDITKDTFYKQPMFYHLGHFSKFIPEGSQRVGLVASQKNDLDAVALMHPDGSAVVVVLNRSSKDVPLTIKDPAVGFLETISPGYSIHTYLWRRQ
Briefly: Glucocerebrosidase (Gcase) activation assay, 4-methylumbelliferyl-beta-D-glucopyranoside substrate, fluorescence. In kind it is biochemical. As to conditions: 10 nM GCase, 100 nM saposin C; for activation at 0.1 µM / activation at 1 µM: 0.25 h; for activation at 0.1 µM: pH 4.7, test compound at 0.1 μM, read-out: Percent Gcase Activation 0.1 μM Test Compound; for activation at 1 µM: pH 4.7, test compound at 1.0 μM, read-out: Percent Gcase Activation 1 μM Test Compound; for Percent Gcase Activation 0.1 μM Test Compound: test compound at 0.1 μM; for Percent Gcase Activation 0.1 μM Test Compound / Percent Gcase Activation 1 μM Test Compound: pH 4.7; for Percent Gcase Activation 1 μM Test Compound: test compound at 1.0 μM. In a few lines: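 10 nM GCase with 100 nM saposin C in Triton/phosphatidylserine micelles (citrate-phosphate, pH 4.7), pre-incubated 30 min at room temperature with compound, then 2 mM 4-methylumbelliferyl-β-D-glucoside stock mixed 1:1; 15 min reaction, stopped with glycine pH 12.5, fluorescence at 365/440 nm. Activation scored at 1.0 and 0.1 μM; 8-point curves from 5 μM top.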

A short description of series [2]: Compound solubility in water. The class given is physicochemical.

For the compound `Cc1cc(C)n2ccc(C(=O)N[C@H](C)c3ccc(Cl)cc3)c2n1` [IV-25], in series [1], the activation at 0.1 µM was over 20% and the activation at 1 µM is over 60%. For the same compound, the concentration in solution in series [2] (solubility) came to 0.6 µg/mL (≈ 1.83 µM).

Turning to `Cc1cc(C)n2ccc(C(=O)NC(C)c3cccc4ccccc34)c2n1` (stereo not drawn) [IV-26], in series [1], the “Percent Gcase Activation 0.1 μM Test Compound” value was “** (Gcase activation in the range of 10% up to 20%)” and the “Percent Gcase Activation 1 μM Test Compound” value is recorded as “+++ (Gcase activation greater than 60%)”. Also, the “Compound Solubility in Water” value in series [2] was found to be 0.2 µg/mL.

For the compound `COc1ccccc1[C@H](C)NC(=O)c1ccn2c(C)cc(C)nc12` [IV-27], in series [1], the activation at 0.1 µM was over 20% and the activation at 1 µM was over 60%. In series [2], the concentration in solution (solubility) was 3 µg/mL (≈ 9.28 µM).

In the case of `Cc1cc(C)n2ccc(C(=O)N[C@@H](C)c3cccc(Cl)c3)c2n1` [IV-28], in series [1], the activation at 0.1 µM is 10 to 20% and the activation at 1 µM is over 60%. Besides, the solubility in series [2] amounted to 0.7 µg/mL (≈ 2.14 µM).

On to `COc1ccccc1[C@@H](C)NC(=O)c1ccn2c(C)cc(C)nc12` [IV-29], for which, in series [1], the activation at 0.1 µM fell in the range of 10 to 20% and the activation at 1 µM was over 60%. The same compound yielded a solubility in series [2] of 2.3 µg/mL (≈ 7.11 µM).

Take `Cc1ccc([C@H](C)NC(=O)c2ccn3c(C)cc(C)nc23)cc1` [IV-30]: in series [1], the activation at 0.1 µM was 10 to 20% and the activation at 1 µM was over 60%. In series [2], this compound gave a solubility of 2.6 µg/mL (≈ 8.46 µM).

Take `Cc1cc(C)n2ccc(C(=O)NC(C)c3ccc4ccccc4c3)c2n1` (stereo not drawn) [IV-31]: in series [1], the activation at 0.1 µM was over 20% and the activation at 1 µM is over 60%. In series [2], the solubility is 0.2 µg/mL (≈ 0.582 µM).

Take `COc1cccc([C@@H](C)NC(=O)c2ccn3c(C)cc(C)nc23)c1` [IV-32]: in series [1], the activation at 0.1 µM lay in the range of 10 to 20% and the activation at 1 µM is over 60%. The compound further displayed a solubility in series [2] of 7.8 µg/mL (≈ 24.1 µM).

In the case of `COc1cccc([C@H](C)NC(=O)c2ccn3c(C)cc(C)nc23)c1` [IV-33], in series [1], the activation at 0.1 µM lay within 10 to 20% and the activation at 1 µM is over 60%. The compound also yielded a solubility in series [2] of 9.4 µg/mL (≈ 29.1 µM).

With `Cc1cc(C)n2ccc(C(=O)NC(C)(c3ccccc3)c3ccccc3)c2n1` [IV-39], in series [1], the activation at 0.1 µM was in the range of 10 to 20% and the activation at 1 µM was over 60%. The compound also gave a solubility in series [2] of 0.8 µg/mL (≈ 2.17 µM).

Regarding `Cc1cc(C)n2ccc(C(=O)NC(C)(C)c3cccc(Cl)c3)c2n1` [IV-40], in series [1], the “Percent Gcase Activation 0.1 μM Test Compound” value was “** (Gcase activation in the range of 10% up to 20%)” and the “Percent Gcase Activation 1 μM Test Compound” value is given as “+++ (Gcase activation greater than 60%)”. Further, in series [2], the concentration in solution (solubility) came to 1.5 µg/mL (≈ 4.39 µM).

With `Cc1cc(C)n2ccc(C(=O)NC(CC3CCC3)c3ccccc3)c2n1` (stereo not drawn) [IV-41], in series [1], the activation at 0.1 µM was over 20% and the activation at 1 µM was over 60%. In series [2], this compound had a solubility of 0.5 µg/mL (≈ 1.44 µM).

With `Cc1cccc(C2CC2C(C)NC(=O)c2ccn3c(C)cc(C)nc23)c1` (stereo not drawn) [IV-42], in series [1], the activation at 0.1 µM is over 20% and the activation at 1 µM is over 60%. This compound also came in with a solubility in series [2] of 1.1 µg/mL (≈ 3.17 µM).

Turning to `CCc1ccc(C(C)NC(=O)c2ccn3c(C)cc(C)nc23)cc1` (stereo not drawn) [IV-44], in series [1], the activation at 0.1 µM was over 20% and the activation at 1 µM was over 60%. This compound also yielded a solubility in series [2] of 2 µg/mL (≈ 6.22 µM).

With `Cc1cc(C)n2ccc(C(=O)NC(C)c3ccc4c(c3)OCO4)c2n1` (stereo not drawn) [IV-45], in series [1], the activation at 0.1 µM was under 10% and the activation at 1 µM lay within 30 to 60%. In addition, the solubility in series [2] was determined as 5.7 µg/mL (≈ 16.9 µM).

As to `Cc1cc(C)n2ccc(C(=O)N[C@@H](C)c3ccc(Cl)cc3)c2n1` [IV-46], in series [1], the activation at 0.1 µM is over 20% and the activation at 1 µM is over 60%. In series [2], this compound registered a solubility of 0.4 µg/mL (≈ 1.22 µM).

Turning to `Cc1cc(C)n2ccc(C(=O)NC(C)c3cccc4ccccc34)c2n1` (stereo not drawn) [IV-47], in series [1], the “Percent Gcase Activation 0.1 μM Test Compound” value was “*** (greater than 20% Gcase activation)” and the “Percent Gcase Activation 1 μM Test Compound” value is listed as “+++ (Gcase activation greater than 60%)”. Further, in series [2], the “Compound Solubility in Water” value is 0.7 µg/mL.

For `Cc1cc(C)n2ccc(C(=O)NC(C)(C)c3cccc4ccccc34)c2n1` [IV-48], in series [1], the activation at 0.1 µM was over 20% and the activation at 1 µM is over 60%. The compound further returned a solubility in series [2] of 0.6 µg/mL (≈ 1.68 µM).

In the case of `Cc1cc(C)n2ccc(C(=O)NC(C)c3cn(C)c4ccccc34)c2n1` (stereo not drawn) [IV-49], in series [1], the activation at 0.1 µM is 10 to 20% and the activation at 1 µM is over 60%. In series [2], this compound returned a solubility of 2.1 µg/mL (≈ 6.06 µM).

As for `CCC(NC(=O)c1ccn2c(C)cc(C)nc12)c1cccnc1` (stereo not drawn) [IV-50], in series [1], the activation at 0.1 µM was under 10% and the activation at 1 µM lay within 30 to 60%. The compound further gave a solubility in series [2] of 24.7 µg/mL (≈ 80.1 µM).

Take `CCOc1ccc(C(CC)NC(=O)c2ccn3c(C)cc(C)nc23)cc1F` (stereo not drawn) [IV-51]: in series [1], the activation at 0.1 µM was over 20% and the activation at 1 µM is over 60%. Moreover, the solubility in series [2] was found to be 0.3 µg/mL (≈ 0.812 µM).

In the case of `Cc1cc(C)n2ccc(C(=O)NC(CC(C)C)c3cccnc3)c2n1` (stereo not drawn) [IV-52], in series [1], the activation at 0.1 µM is under 10% and the activation at 1 µM was 30 to 60%. This compound showed a solubility in series [2] of 17.3 µg/mL (≈ 51.4 µM).

For the compound `Cc1cc(C)n2ccc(C(=O)NC(C)c3cccc4c3OCCCO4)c2n1` (stereo not drawn) [IV-53], in series [1], the activation at 0.1 µM was in the range of 10 to 20% and the activation at 1 µM is over 60%. In addition, the solubility in series [2] was determined as 5.1 µg/mL (≈ 14 µM).

For the compound `CCC(NC(=O)c1ccn2c(C)cc(C)nc12)c1cc(C)ccn1` (stereo not drawn) [IV-54], in series [1], the activation at 0.1 µM is under 10% and the activation at 1 µM is under 30%. In addition, in series [2], the solubility turned out to be 23.2 µg/mL (≈ 72 µM).

On to `CCC(NC(=O)c1ccn2c(C)cc(C)nc12)c1cccc(C)n1` (stereo not drawn) [IV-55], for which, in series [1], the activation at 0.1 µM was under 10% and the activation at 1 µM was under 30%. In addition, the solubility in series [2] came out at 17.6 µg/mL (≈ 54.6 µM).

As for `CCC(NC(=O)c1ccn2c(C)cc(C)nc12)c1ccc(F)cc1` (stereo not drawn) [IV-56], in series [1], the activation at 0.1 µM is over 20% and the activation at 1 µM was over 60%. Besides, the concentration in solution in series [2] (solubility) was 2 µg/mL (≈ 6.15 µM).

As for `CCC(NC(=O)c1ccn2c(C)cc(C)nc12)c1nc(C2CC2)no1` (stereo not drawn) [IV-58], in series [1], the activation at 0.1 µM was under 10% and the activation at 1 µM fell in the range of 30 to 60%. For the same compound, the concentration in solution in series [2] (solubility) was 18.5 µg/mL (≈ 54.5 µM).

With `CCC(NC(=O)c1ccn2c(C)cc(C)nc12)c1ccc(Cl)cc1` (stereo not drawn) [IV-59], in series [1], the activation at 0.1 µM is over 20% and the activation at 1 µM was over 60%. In series [2], this compound returned a solubility of 0.8 µg/mL (≈ 2.34 µM).

Consider `COc1ccc(C(C)NC(=O)c2ccn3c(C)cc(C)nc23)cc1F` (stereo not drawn) [IV-61], for which, in series [1], the activation at 0.1 µM was over 20% and the activation at 1 µM is over 60%. For the same compound, the concentration in solution in series [2] (solubility) was 1.9 µg/mL (≈ 5.57 µM).

Take `CCC(NC(=O)c1ccn2c(C)cc(C)nc12)c1ccc2c(c1)OCCO2` (stereo not drawn) [IV-62]: in series [1], the activation at 0.1 µM lay within 10 to 20% and the activation at 1 µM was over 60%. Also, the solubility in series [2] is 1.1 µg/mL (≈ 3.01 µM).

Take `Cc1cc(C)n2ccc(C(=O)NC(C)c3nc4c(s3)CCCC4)c2n1` (stereo not drawn) [IV-64]: in series [1], the activation at 0.1 µM lay in the range of 10 to 20% and the activation at 1 µM was over 60%. In series [2], this compound displayed a solubility of 4.9 µg/mL (≈ 13.8 µM).

As to `Cc1cc(C)n2ccc(C(=O)NC(CC(C)C)c3ccccc3)c2n1` (stereo not drawn) [IV-66], in series [1], the activation at 0.1 µM was over 20% and the activation at 1 µM is over 60%. The solubility in series [2] came to 1 µg/mL (≈ 2.98 µM).

As for `Cc1cc(C)n2ccc(C(=O)NC(C)C3(c4ccccc4)CCCC3)c2n1` (stereo not drawn) [IV-73], in series [1], the activation at 0.1 µM was over 20% and the activation at 1 µM was over 60%. This compound also showed a solubility in series [2] of 1.5 µg/mL (≈ 4.15 µM).

With `CCOc1ccccc1C(C)NC(=O)c1ccn2c(C)cc(C)nc12` (stereo not drawn) [IV-78], in series [1], the activation at 0.1 µM was over 20% and the activation at 1 µM is over 60%. In series [2], this compound came in with a solubility of 2.1 µg/mL (≈ 6.22 µM).

Take `Cc1cc(C)n2ccc(C(=O)NC(C)c3ccc4c(c3)CC(C)O4)c2n1` (stereo not drawn) [IV-79]: in series [1], the activation at 0.1 µM was over 20% and the activation at 1 µM is over 60%. The same compound displayed a solubility in series [2] of 2.6 µg/mL (≈ 7.44 µM).

For orientation: solubility means the concentration that dissolves in the medium under given conditions. A low value points to little dissolved substance.
